The values below come from patent publication US10159676B2, “Induction of tumor hypoxia for cancer therapy” (Virginia Commonwealth University, priority 2008, dated 2018).

The subject of assay [1] is UCI-101 ovarian cancer tumor xenografts. The assay can be described thus: Real-time measurement of tumor oxygen and blood flow (OxyLite/OxyFlo). Format: in vivo, nude mice. Particulars: 50 mg/kg intraperitoneal. The procedure:
FIG. 3. Tumor blood flow and oxygen content in tumor. Oxygen and blood flow were monitored by OxyFlo and OxyLite system (Optronix, Oxford, UK). Mice were anesthetized with isoflurane and a triple sensor that records temperature, oxygen and blood flow was inserted into tumor and left for 1 hour for recording. Shown are the results of three mice with similar size subcutaneous tumors derived from UCI-101 ovarian cancer cells. Top panels are oxygen level and lower panels are tumor blood flow. Timing of St5c injection was marked.
Nude mice were injected subcutaneously with UCI-101 ovarian cancer cells to form tumor xenografts. Tumor xenografts were subjected to oxygen and blood flow study when tumor size reached 8-10 mm in largest diameter. Tumor was punctured with 25 G needle to make a tunnel for insertion of sensor probe. The tip of the sensor probe was left in the center of the tumor. Tumor oxygen level and blood flow were determined by OxyLite 2000 dual channel monitoring system with “bare-fibre” type sensor probe, which is designed for measuring tissue oxygen, temperature and blood flow using laser Doppler technique (Optonix, oxford, UK). The measurement was done in a real time basis (100 measurements per second) and the oxygen level and tumor blood flow were recording continuously. Because the initial trauma induced by needle and insertion of sensor probe can interfere with blood flow and oxygenation, each mouse was recorded first without treatment for at least 20 min before the mice was injected intraperitoneally with the tested VDA cis-3, 4′,5-trimethoxy-3′-aminostilbene (stilbene 5c) at 50 mg/kg. The tumor blood flow and oxygen level was then recorded for another 20 min after treatment.
In this study, we performed proof of concept study with VDA stilbene 5c to confirm that stilbene 5c induce tumor hypoxia. […]
There are several issues that need to be considered in order to interpret the results. […] All mice were thus recorded for at least 20 min to record the pre-treatment baseline. […]

A further assay has as its system UCI-101 tumor xenograft. Put plainly: Tumor growth, stilbene 5c with or without bevacizumab. Format: in vivo, nude mice. The protocol: FIG. 4. Efficacy of stilbene 5c in vivo and enhanced effect by bevacizumab. Nude mice were injected with UCI-101 cells subcutaneously and mice are treated with stilbene 5c at 20 mg/kg/day Monday-Friday with or without bevacizumab 10 mg/kg twice a week. Tumor volume was calculated by the long and short axes. Each group contains 8 mice and the average tumor volumes and standard deviations were plotted against days.
Tumor cell lines used in this study include UCI-101 ovarian cancer cells and Hep3B hepatocellular carcinoma cells. Cells are grown in IMEM and DMEM, respectively, supplemented with 10% fetal bovine serum, glutamine, and penicillium/streptomycin in 5% CO2 humidified environment. When cells were grown to 80% confluent, cells were harvested with 1% trypsin and washed with phosphate-buffered saline three times before injected subcutaneously into nude mice. For mouse xenograft studies, 2×10^6 tumor cells were injected in the back subcutaneously. Nude mice were purchased from NCI Development Therapeutic Program as described. Tumor size was monitored by long and short axes (a and b, respectively) by a caliber and tumor volume was calculated by the formula ab^2/2. […]. Treatment with AAA bevacizumab was done by tail vein injection at a dose of 10 mg/kg.
Next we used ovarian cancer UCI101 cells to study the in vivo efficacy of stilbene 5c We first administered stilbene 5c with intraperitoneal injection at 25 mg/kg three times a week. Tumor volume was calculated by measuring the long and short axes. […] The failure could be due to the possibility that intermittent dosing leaves a viable rim of tumor, which survives the treatment of VDAs by getting nutritional and blood support from surrounding normal vasculature. When treatment with VDAs is stopped, the viable rim of tumor grows quickly. Tumor vasculature recovers quickly by recruitment of the mobilized endothelial progenitor cells. Based on this rationale, we combined stilbene 5c with bevacizumab, which was used to neutralize VEGF secreted by UCI-101 tumor cells. […]

Turning to `COc1cc(/C=C\c2ccc(OC)c(N)c2)cc(OC)c1` [stilbene 5c, cis-3, 4′, 5-trimethoxy-3′-aminostilbene], the “tumor oxygen level after treatment” value in assay [1] (all three mice, within 20-30 min recording, baseline 15-60 mm Hg) was “less than 10 mm Hg”. For the same molecule, the “tumor blood flow after treatment, of the level before stilbene treatment” value in assay [1] (mice #1 and 3) was “less than 25%”. In addition, the “tumor blood flow change” value in assay [1] (mouse #2 (low baseline flow 200-300)) was “significant in the beginning but subsequently recovered in some degree though still lower than baseline”. In the assay on UCI-101 tumor xenograft (intraperitoneal 25 mg/kg three times a week), the “difference in tumor growth between control and treated mice” value was “did not detect any difference”. The tumor growth suppression result in the assay with UCI-101 tumor xenograft (stilbene 5c 20 mg/kg/day Monday to Friday for two weeks, bevacizumab 10 mg/kg twice a week for 5 doses) is reported as “about 45%”.
